# What was measured:
# [1] = unlabelled mutant; cited from earlier work
# Text: We also studied a double mutant (F19S/L34P) of Aβ42 (hereon referred to as 'mutant peptide'), which was discovered through a GFP-based screen for mutations that reduce the aggregation p ...
# [2] = system: NGF differentiated PC12 cells; test: Blocking the binding of Aβ42 to the surface of live PC12 cells (flow cytometry); format: cell-based, rat; details: cells pre-treated with the reagent, then TMR-labelled Aβ42 1.5 μM for 1-2 hours, trypsin 10 μg/mL 15 min then SBTI, Figure 6A
# Description: NGF differentiated PC12 cells treated with Aβ (1.5 μM) were washed once with cold D-PBS, followed by mechanical detachment with D-PBS. Collected cells were centrifuged (200 × g for 1 minute) and resuspended in cold flow buffer containing 5 mM EDTA and 1% BSA (Fisher Scientific, Nepean, ON) in D-PBS. Samples were immediately analyzed with a FACS Calibur flow cytometer (Becton Dickinson, Mississauga, ON). TMR-labelled samples were detected with 585/42 filter collecting 5 × 10^4 events per sample using 100–300 events/s flow rate. Cell viability was assessed with 25 μg/mL 7-Aminoactinomycin D (7-AAD) treatment for 5 minutes and detected with a long pass 650 nm filter. Data collection and analysis were performed using Cell Quest version 3.3 and figures were created using WinMDI version 2.8 software.
# Various treatments to block or remove lipid, carbohydrate, or protein components from the surface of live PC12 cells were performed and their effects on Aβ binding was examined. NGF differentiated PC12 cells were treated with 100 ng/mL FITC labelled annexin V (to block negatively charged phospholipids) or 10 μg/mL FITC labelled cholera toxin subunit B (to block GM1 ganglioside) for 20 minutes before addition of Aβ42 (final concentration 1.5 μM) for two hours. […] After Aβ42 addition, treated cells and untreated control cells were analyzed using flow cytometry.
Molecule,aggregation state of the mutant [1],effect of cell surface treatment on Aβ42 binding [2]
"DAEFRHDSGYEVHHQKLVSFAEDVGSNKGAIIGPMVGGVVIA [double mutant (F19S/L34P) of Aβ42, double mutant (F19S/L34P) of Aβ42 with reduced aggregation propensity, unlabelled]",soluble unstructured monomeric peptide,
"trypsin: protease (9590 units/mg) used to remove cell surface proteins from PC12 cells (protein, UniProt P00760 24-246, looked up) Serine protease 1: IVGGYTCGANTVPYQVSLNSGYHFCGGSLINSQWVVSAAHCYKSGIQVRLGEDNINVVEGNEQFISASKSIVHPSYNSNTLNNDIMLIKLKSAASLNSRVASISLPTSCASAGTQCLISGWGNTKSSGTSYPDVLKCLKAPILSDSSCKSAYPGQITSNMFCAGYLEGGKDSCQGDSGGPVVCSGKLQGIVSWGSGCAQKNKPGVYTKVCNYVSWIKQTIASN",,significantly decreased

# From PMC1871596, “Requirement of aggregation propensity of Alzheimer amyloid peptides for neuronal cell surface binding” (BMC Neuroscience, 2007)
